Laboratory results: EP0802900B1, “ANTIARRHYTHMIC (S)-ENANTIOMERS OF METHANESULFONAMIDES” (priority 1995, dated 1996)
Like-named read-outs stand apart in the source and are kept apart here.

Legend:
[1] = tested on: methoxamine treated rabbits; assay: Early after depolarizations (EAD) and polymorphic ventricular tachycardia (PVT) in methoxamine treated anesthetized rabbits; type: in vivo, New Zealand White rabbits; conditions: for EAD: Magnitude of the maximum early after depolarization amplitude as a percent of the monophasic action potential amplitude (APA) / MAPD90: Maximum increase in the ventricular monophasic action potential duration from the methoxamine infusion baseline, measured at 90% repolarization / PVT: Ratio of the number of animals that developed polymorphic ventricular tachycardia to the total number of animals evaluated / QTc: Maximum increase in QTc interval from the methoxamine infusion baseline: continuous intravenous infusion over 1 hour, methoxamine 10 µg/kg/minute
Method: The Formula I compounds were evaluated for their ability to produce early after depolarizations (EAD) and polymorphic ventricular tachycardia (PVT) in methoxamine treated rabbits. The method used was as follows:
Male New Zealand White rabbits (2.5 - 3.5 kg,) were pretreated with subcutaneous morphine sulfate (5 mg/kg) 30 minutes prior to anesthesia. Anesthesia was induced by infusion of α-chloralose (90 - 120 mg/kg) through a marginal ear vein over a period of 20 to 30 minutes. A tracheotomy was performed and the rabbit was respirated with room air (5 - 6 cc/kg) using a small animal ventilator (Columbus Instruments, Columbus, OH). Respiration rate, and tidal volume were adjusted, and supplemental oxygen administered to maintain arterial blood gases and pH within normal physiologic ranges. Catheters were placed in a jugular vein and carotid artery for administration of drugs, and measurement of arterial blood pressure, respectively. A 4 French monophasic action potential catheter was introduced through a jugular vein for monitoring of right ventricular monophasic action potential duration which was measured at 90% repolarization (MAPD90), A lead II ECG and arterial blood pressure were monitored throughout the experiments.
All records were obtained on a multichannel recorder (Gould ES 2000, Cleveland, OH) and experiments were continuously recorded on FM magnetic tape (TEAC 501, Montebello, CA) for subsequent playback and analysis.
Following experimental preparation, the rabbits were allowed to equilibrate for 10 minutes before baseline measurements of heart rate, aortic blood pressure, and QTc interval were made. During the equilibration period, monophasic action potentials were monitored and the catheter adjusted to produce action potentials with a stable amplitude. Following baseline measurements, the α1 agonist methoxamine was infused at a rate of 10 µg/kg/minute at an infusion volume of 12.0 ml/hr. After 15 minutes of methoxamine administration, intravenous infusion of saline (vehicle control) or a class III agent was begun. All agents were administered as a continuous infusion over a 1 hour period. Measurement of heart rate, aortic blood pressure. QTc interval (as defined below), and MAPD90 were repeated at several time points during drug administration to provide dose-response relationships. QTc and MAPD90 were also monitored to insure that maximal class III effects on these parameters had been achieved.
Total accumulated dose at the first incidence of PVT was also measured. Repolarization arrhythmias were characterized as early after depolarizations and extrasystoles during repolarization which produced extrasystoles in lead II ECG. PVT was considered to have occurred if 3 or more closely coupled repetitive extrasystoles with a twisting or torsioning QRS morphology were observed.
QT intervals were corrected for heart rate changes using the formula QTc = QT/square root R-R interval. EADs were compared between treatment groups at stable monophasic action potential amplitudes (APA) and are reported as a percent of the APA.
Examples of Formula I compounds evaluated in this manner are collected in Table II. A measure of Class III antiarrhythmic activity is indicated by an increase in QTc and MAPD90. The proarrhythmic potential is indicated by the incidence and magnitude of the EADs and by the ratio of the incidence of PVT to the total number of animals tested. The corresponding data for ibutilide, a compound of U.S. Patent 5,155,268, and the racemc forms Examples (R.S) (compounds of PCT WO 91/01299) are shown for comparison.

rabbit papillary muscle = assay: Electrophysiological activity in isolated, perfused rabbit cardiac tissue (effective refractory period); set-up: species or system New Zealand White rabbits; conditions: drug concentration of 10^-5M; for activation at 10 µM: Oryctolagus cuniculus
Method: According to Scheme 1, in Step I, (4-methanesulfonylamino)-γ-oxobenzenebutanoic acid (II, prepared as described in EP 164 865) is convened to the N-ethylamide (III). Standard amide forming reagents such as dicyclohexylcarbodiimide or preferably isobutyl chloroformate can be used for this purpose. In Step II the ketone of III is reduced with the chiral reagent (-)-B-chlorodiisopinocamphenylborane in tetrahydrofuran. The reaction is carried out below 0°C and preferably at -25 to -35°C. A nonaqueous work up is used to facilitate isolation of the water soluble product. The (S)-(-) enantiomer of the chiral alcohol is obtained. Purification of this alcohol by recrystallization from acetonitrile, methanol, ethanol, tert-butyl methyl ether or mixtures thereof gives IV with high enantiomeric purity. In Step III the amide of IV is reduced with sodium bis-(2-methoxyethoxy)aluminum hydride in tetrahydrofuran at 24°C. A neutral nonaqueous work up is employed to facilitate isolation of the water soluble product (V). Alkylation of V with appropriately substituted alkyl bromides (R3CH2Br) to give the compounds (I) of this invention is accomplished in Step IV. The preferred conditions for this reaction employ acetonitrile as solvent and the weakly basic sodium bicarbonate to neutralize the hydrogen bromide generated by the reaction. The reaction is usually carried out at the reflux temperature (81°C). [drawing 2] The Formula I compounds were evaluated for electrophysiological activity in an isolated, perfused rabbit cardiac tissue system. The method used was as follows:
New Zealand White rabbits of either sex (1.5-2.0 kg) were anesthetized and their hearts removed. The heart was immersed in ice cold perfusate while the right atria (RA), papillary muscles (PAP), and right ventricular muscle strips (RV) were isolated. The perfusate was continuously oxygenated with 95% oxygen and 5% carbon dioxide and contained the following in mM concentrations: NaCI 118.0; KCl 5.4; NaHCO3 25.0; MgCl2 1.2: KH2PO4 1.0; CaCl2 2.4; glucose […] and pyruvic acid 2.0. During hypoxic conditions the perfusate was exposed to a mixture of 83% nitrogen, 10% carbon dioxide and 7% oxygen. The pH during normoxia was approximately 7.4 and dropped to approximately 7.2 during hypoxic conditions.
The tissues were individually mounted on a plexiglass holder containing platinum stimulating electrodes and suspended in a 100 ml bath maintained at 30°C by a circulating heat pump. All tissues were attached by silk suture to a force-displacement transducer and a tissue-dependent preload of 500-1000 mg was applied. RA were allowed to contract spontaneously. RV and PAP were stimulated at 2X threshold with 4 msec rectangular pulses at a frequency of 1 and 3 Hz. (Effective refractory period measurements percent increment over control are ERPI and ERP3, conduction time measurements are CT1 and CT3). Between measurements those tissues were stimulated at a resting pace of 2 Hz. Each tissue served as its own baseline control and was allowed an equilibration period of two hours prior to experiments. During this period the perfusate was changed every 10-15 minutes.
Working solutions of the drugs were prepared by dissolving the drugs in distilled water and one drop of NaOH/ml to aid in dissolution (pH 9.4).
Measurements were made on each set of tissues after exposure to 10^-7, 10^-6, or 10^-5M drug for 15 minutes; and 10^-5M drug under hypoxic conditions for 15 minutes.
Automaticity (RATE), force of contraction (FOC) and threshold were measured directly on a polygraph. The ERP of cardiac tissues by definition is the longest coupling interval between the basic drive (S1) and the premature impulse (S2) that fails to propagate through the tissue. The S2 stimulus was introduced after every eighth Sl which allowed time for stabilization of refractoriness. Refractory period measurements were made via a digital timing circuit. […]

[2] = value in parentheses in EAD column
[3] = pacing rate of 1 Hz, read-out: ERP1: percent increase in the effective refractory period over control values
[4] = pacing rate of 3 Hz, read-out: ERP3: percent increase in the effective refractory period over control values

Molecule	EAD: Magnitude of the maximum early after depolarization amplitude as a percent of the monophasic action potential amplitude (APA) [1]	MAPD90: Maximum increase in the ventricular monophasic action potential duration from the methoxamine infusion baseline, measured at 90% repolarization [1]	PVT: Ratio of the number of animals that developed polymorphic ventricular tachycardia to the total number of animals evaluated [1]	QTc: Maximum increase in QTc interval from the methoxamine infusion baseline [1]	Total accumulated dose of test compound when the maximum EAD was measured [1, 2]	Total accumulated dose at the first incidence of PVT ([1]; value in parentheses in PVT)	activation at 10 µM (rabbit papillary muscle; [3])	activation at 10 µM (rabbit papillary muscle; [4])	Total accumulated dose at the first incidence of PVT ([1]; rabbit, in vivo)	Total accumulated dose of test compound when the maximum EAD was measured ([1]; rabbit, in vivo)	ERP1: percent increase in the effective refractory period over control values (rabbit papillary muscle; pacing rate of 1 Hz)	ERP3: percent increase in the effective refractory period over control values (rabbit papillary muscle; pacing rate of 3 Hz)
CCN(CCCCCCCF)CCCC(O)c1ccc(NS(C)(=O)=O)cc1 (racemic) [(R,S) 1]	52%	+128 m sec	1/6	+143 m sec	0.5 mg/kg	2 mg/kg	–	–	–	–	–	–
CCN(CCCCCC(C)F)CCCC(O)c1ccc(NS(C)(=O)=O)cc1 (racemic) [(R,S) 2]	63%	+141 m sec	3/6	+166 m sec	1 mg/kg	0.2 mg/kg	–	–	–	–	–	–
CCN(CCCCCC(C)(C)F)CCCC(O)c1ccc(NS(C)(=O)=O)cc1 (racemic) [(R,S) 3]	35%	+96 m sec	1/6	+136 m sec	0.25 mg/kg	0.2 mg/kg	–	–	–	–	–	–
CCN(CCCCCC(C)(C)F)CCC[C@H](O)c1ccc(NS(C)(=O)=O)cc1 [Example 3, (S)-(-)-N-[4-[4-[Ethyl(6-fluoro-6-methylheptyl)amino]-1-hydroxybutyl]phenyl]-methanesulfonamide]	0%	+75 m sec	0/16	+82 m sec	–	–	21.4%	25.4%	–	–	–	–
CCCCCCCN(CC)CCCC(O)c1ccc(NS(C)(=O)=O)cc1 (stereo not drawn) [Ibutilide, ibutilide]	–	+114 m sec	–	+95 m sec	–	–	18%	15.8%	1 mg/kg	4 mg/kg	–	–
(S)-(-)-N-[4-[4-[Ethyl(6-fluoroheptyl)amino]-1-hydroxybutyl]phenyl]methanesulfonamide, (E)-2-Butenedioate (2:1 salt) [Example 2]	0%	+88 m sec	0/16	+119 m sec	–	–	–	–	–	–	30.7%	8.7%
(S)-(-)-N-[4-[4-[Ethyl(7-fluoroheptyl)amino]-1-hydroxybutyl]phenyl] methanesulfonamide, (E)-2-Butenedioate (2:1 salt) [Example 1]	0%	+70 m sec	0/16	+112 m sec	–	–	–	–	–	–	43.5%	26.1%
